tested on: SA121 hESCs; assay: General (monolayer) differentiation on matrigel in defined media, qRT-PCR of stem cell and differentiation markers after 14 days; format: cell-based, human; parameters: key to NO EHNA EFFECT: X: NO EHNA EFFECT; key to Full EHNA effect: those which maintained at least 50% of the level of NANOG-expression in comparison to EHNA and those that inhibited the expression of PAX6 to 50% or less than the value untreated controls were considered to have an EHNA-like effect; conditions: 10 uM, 14 days, qRT-PCR; NANOG at least 50% of EHNA level and PAX6 50% or less of untreated control
Experimental: In order to ascertain the efficacy of the compounds of the present invention, each compound was tested to determine whether it can maintain the stem cell marker NANOG and/or block the differentiation marker PAX6 in the face of differentiating conditions in a manner similar to EHNA. Cells enzymatically passaged onto matrigel-coated dishes and grown for 2 weeks in defined media with or without (control) compound addition were analysed by qRT-PCR to determine the level of NANOG and PAX6 expression.
For general differentiation experiments cells were passaged with trypsin onto matrigel coated twelve-well dishes in the fully supportive media (see above). The media was then changed to defined media 24 h later and any experimental component was first added at this point. The media and experimental supplement were changed daily.
Cells were routinely harvested for qRT-PCR analysis 14 days after the first addition of the experimental compound.
Total RNA was extracted using QIAGEN RNeasy kits (Qiagen Inc, Valencia, Calif., http://www.qiagen.com) and DNaseI treatment was performed using Turbo DNA-Free (Ambion). The absence of genomic DNA was confirmed by quantitative PCR (qPCR) (see below) using glyceraldehyde-3-phosphate dehydrogenase (GAPDH) Taqman primers and probe (MWG). cDNA was synthesized with 2 μg total RNA in 20 μl using Superscript II according to manufacturers' instructions ((Carlsbad, Calif., http://www.Invitrogen.com)). For qPCR, cDNAs were diluted 1 in 60 and 5 μl used per sample in a 15 μl total reaction volume. Platinum pPCR supermix UDG with Rox (Carlsbad, Calif., http://www.Invitrogen.com) was used according to the manufacturer's instructions using an Applied Biosystems 7300 real time PCR system (Applied Biosystems, Warrington, UK, http://europe.appliedbiosystems.com). Each reaction contained 0.6 μM of each primer and Taqman probe (MWG). Biological and technical replicates were each performed in triplicate for each sample, standardised to the GAPDH housekeeping gene and relative expression values were calculated using the 7300 system SDS software (Applied Biosystems, Warrington, UK, http://europe.appliedbiosystems.com).
Cells were enzymatically passaged onto matrigel-coated dishes and grown for 2 weeks in defined media. After 14 days, qRT-PCR was utilised to analyse the expression of a variety of markers of pluripotency and differentiation. In the graphs in FIG. 9 the value 1 was set to the expression level of the gene in undifferentiated SA121 hESCs.
Cells were enzymatically passaged onto matrigel-coated dishes and grown for 2 weeks in defined media (1× confluent T25 tissue culture flask was passaged to 2×12 well dishes) with or without (control) compound addition. All compounds were added at 10 uM and each was performed in triplicate. Media and compounds were changed every 48 hours. After 14 days RNA was isolated and qRT-PCR was utilised to analyse the expression of NANOG and PAX6. The results are illustrated in FIGS. 13 to 17.
In the graphs in FIGS. 13, 14 15, 16 and 17 the value 1 was set relative to the expression level of the gene in the control (no compound) samples. […] This experiment allowed the effect of the EHNA-related compounds to be measured directly in comparison to EHNA. […] Those which had on effect, to these levels, on either PAX6 or NANOG were considered to have a partial-EHNA effect.

Row | Compound | Full EHNA effect
1 | CCCCCCCCCn1ncc2c(N)ncnc21.Cl [HWC31, 1-nonyl-1H-pyrazolo[3,4-d]pyrimidin-4-amine hydrochloride] | X

same assay, conditions: 10 uM, 14 days, qRT-PCR; neither NANOG nor PAX6 criterion met

Row | Compound | NO EHNA EFFECT
2 | CCCCCC[C@@H](O)[C@H](C)n1cnc2c(OC)ncnc21 [HWC51, (2S,3R)-2-(6-methoxy-9H-purin-9-yl)nonan-3-ol] | X
3 | COc1ncnc2c1ncn2[C@H](C)[C@@H](O)CCc1ccccc1.Cl [HWC43, (3S,4R)-4-(6-methoxy-9H-purin-9-yl)-1-phenylpentan-3-ol hydrochloride] | X
4 | CCCCCCC(C(C)O)n1cnc2c(O)ncnc21.Cl (stereo not drawn) [HWC14, erythro-9-(2-hydroxynonan-3-yl)-9H-purin-6-ol hydrochloride] | X
5 | CCCCC[C@H]([C@H](C)O)n1cnc2c(N)ncnc21 [HWC59, (2S,3R)-3-(6-amino-9H-purin-9-yl)octan-2-ol] | X
6 | CCCCCC[C@H]([C@H](C)O)n1cnc2c(OC)ncnc21 [HWC47, (2S,3R)-3-(6-methoxy-9H-purin-9-yl)nonan-2-ol] | X
7 | C[C@H](O)[C@@H](CCc1ccccc1)n1cnc2c(N)ncnc21.Cl [HWC44, (2S,3R)-3-(6-amino-9H-purin-9-yl)-5-phenylpentan-2-ol hydrochloride] | X

same assay, conditions: 10 uM, 14 days, qRT-PCR; only PAX6 50% or less of untreated control

Row | Compound | PARTIAL EHNA EFFECT (PAX6)
8 | CCCCCC[C@@H]([C@@H](C)O)n1cnc2cnccc21 [HWC8, erythro-3-(1H-imidazo[4,5-c]pyridin-1-yl)nonan-2-ol] | X (Those which had on effect, to these levels, on either PAX6 or NANOG were considered to have a partial-EHNA effect)
9 | C[C@H]([C@@H](O)CCc1ccccc1)n1cnc2c(N)ncnc21.Cl [HWC42, (3S,4R)-4-(6-amino-9H-purin-9-yl)-1-phenylpentan-3-ol hydrochloride] | X (Those which had on effect, to these levels, on either PAX6 or NANOG were considered to have a partial-EHNA effect)
10 | COCCOCCn1ncc2c(N)ncnc21 [HWC34, 1-[2-(2-methoxyethoxy)ethyl]-1H-pyrazolo[3,4-d]pyrimidin-4-amine] | X (Those which had on effect, to these levels, on either PAX6 or NANOG were considered to have a partial-EHNA effect)
11 | CCCCCC[C@@H]([C@@H](C)O)n1cnc2c(N(C)C)ncnc21.Cl [HWC17, erythro-3-[6-(dimethylamino)-9H-purin-9-yl]nonan-2-ol hydrochloride] | X (Those which had on effect, to these levels, on either PAX6 or NANOG were considered to have a partial-EHNA effect)
12 | CCCCCC[C@H](O)[C@@H](C)n1cnc2c(N)ncnc21 [HWC48, (2R,3S)-2-(6-amino-9H-purin-9-yl)nonan-3-ol] | X (Those which had on effect, to these levels, on either PAX6 or NANOG were considered to have a partial-EHNA effect)
13 | CCCCCCC(C(C)O)n1cnc2c(S)ncnc21.Cl (stereo not drawn) [HWC13, erythro-3-(6-mercapto-9H-purin-9-yl)nonan-2-ol hydrochloride] | X (Those which had on effect, to these levels, on either PAX6 or NANOG were considered to have a partial-EHNA effect)
14 | Nc1ncnc2c1cnn2CCN1CCOCC1 [HWC28, 1-(2-morpholinoethyl)-1H-pyrazolo[3,4-d]pyrimidin-4-amine] | X (Those which had on effect, to these levels, on either PAX6 or NANOG were considered to have a partial-EHNA effect)
15 | COCCOCCn1cc2c(N)ncnc2n1 [HWC35, 2-[2-(2-methoxyethoxy)ethyl]-2H-pyrazolo[3,4-d]pyrimidin-4-amine] | X (Those which had on effect, to these levels, on either PAX6 or NANOG were considered to have a partial-EHNA effect)

same assay, conditions: qRT-PCR, 14 days

Row | Compound | PAX6 expression in differentiating conditions
16 | COc1ccc(Cc2nn3c([C@@H](CCCc4ccccc4)[C@@H](C)O)nc(C)c3c(=O)[nH]2)cc1OC [BAY-60-7550, reference compound] | nor did they inhibit PAX6 induction

same assay, conditions: qRT-PCR, 14 days, FIG. 9a

Row | Compound | stem cell marker expression (NANOG, ZFP42, POU5F1) in differentiating conditions
17 | COc1ccc(Cc2nn3c([C@@H](CCCc4ccccc4)[C@@H](C)O)nc(C)c3c(=O)[nH]2)cc1OC [BAY-60-7550, reference compound] | Neither BAY nor IBMX maintained stem cell marker expression

tested on: not listed separately; assay: Solubility in 5% DMSO-water; format: physicochemical; conditions: not given

Row | solubility in 5% DMSO-water | Compound
18 | poor solubility | CCCCCCCCCCn1cc2c(N)ncnc2n1 [HWC-3, 2-decyl-2H-pyrazolo[3,4-d]pyrimidin-4-amine]
